Columns and labels:
Type in all cases: biochemical
Flt-1 (VEGFR1) = Flt-1 (VEGFR1) (Homo sapiens, UniProt P17948); assay: Time-dependent kinase inhibition kinetics (progress curve)
Experimental: (§1) Typically, one measures the increase in inhibition of protein kinase activity in the presence of inhibitor over time. In one method, aliquots of a “pre-incubation” reaction mixture containing enzyme and inhibitor are assayed for activity (initial velocities) over time; increased inhibition or decreased initial velocities will be observed over time as the Michael adduct forms (Walsh, C, Enzyme Reaction Mechanisms, W.H. Freeman & Co., 1979, pp 86-94). In a second method, the time dependent loss of activity is measured as “progress curves” that measure and analyze product formed (e.g. ADP) versus time (Morrison & Walsh, Adv. Enzymol Relat Areas Mol. Biol. 1988, 61, 201-301). In either case, the time dependent inactivation can be dampened by the presence of a competing substrate, in this case ATP.
(§2) For covalent inhibitors, plots of log (activity) versus time provide apparent first-order rate constants (kobsd) of enzyme activity loss. If these assays are performed at varying concentrations of inhibitor, a series of first-order plots is obtained and kobsd obtained at each inhibitor concentration. To measure time-dependent inhibition using the “progress-curve method” (see references cited above and Kuzmic et al., Methods Enzymol 2004; 383: 366-81), ERK (or other kinase) is treated with varying amounts of the lactone inhibitor, and the formation of ADP is measured continuously by a coupled assay. […] Such molecules may be competitive inhibitors but should not show time-dependent inactivation.
(§3) Those of skill in the art will recognize that within the set of compounds useful in the methods of the invention, significant variability in specificity can be achieved, allowing one to identify optimal compounds for different applications. Inhibition progress curve analysis was performed using continuous, colorimetric, or fluorimetric assays. All experiments were done at 1 mM ATP, with the exception of KDR (at 5 mM ATP).
(§4) MEK1 assays were performed using pre-incubation experiments with radioactive [^32P]ATP and filter binding of product. All other kinases were analyzed using progress curve analysis from a continuous spectrophotometric assay.

GSK3α = GSK3α (Homo sapiens, UniProt P49840); assay: as above
Experimental: as §1, §2, §3, §4

TrkB = TrkB (Homo sapiens, UniProt Q16620); assay: as above
Experimental: as §1, §2, §3, §4

GSK3β = GSK3β (Homo sapiens, UniProt P49841); assay: as above
Experimental: as §1, §2, §3, §4

Flt-3 = target: T1, Flt-3 (Homo sapiens, UniProt P36888); assay: as above
T1 sequence (P36888 27-993): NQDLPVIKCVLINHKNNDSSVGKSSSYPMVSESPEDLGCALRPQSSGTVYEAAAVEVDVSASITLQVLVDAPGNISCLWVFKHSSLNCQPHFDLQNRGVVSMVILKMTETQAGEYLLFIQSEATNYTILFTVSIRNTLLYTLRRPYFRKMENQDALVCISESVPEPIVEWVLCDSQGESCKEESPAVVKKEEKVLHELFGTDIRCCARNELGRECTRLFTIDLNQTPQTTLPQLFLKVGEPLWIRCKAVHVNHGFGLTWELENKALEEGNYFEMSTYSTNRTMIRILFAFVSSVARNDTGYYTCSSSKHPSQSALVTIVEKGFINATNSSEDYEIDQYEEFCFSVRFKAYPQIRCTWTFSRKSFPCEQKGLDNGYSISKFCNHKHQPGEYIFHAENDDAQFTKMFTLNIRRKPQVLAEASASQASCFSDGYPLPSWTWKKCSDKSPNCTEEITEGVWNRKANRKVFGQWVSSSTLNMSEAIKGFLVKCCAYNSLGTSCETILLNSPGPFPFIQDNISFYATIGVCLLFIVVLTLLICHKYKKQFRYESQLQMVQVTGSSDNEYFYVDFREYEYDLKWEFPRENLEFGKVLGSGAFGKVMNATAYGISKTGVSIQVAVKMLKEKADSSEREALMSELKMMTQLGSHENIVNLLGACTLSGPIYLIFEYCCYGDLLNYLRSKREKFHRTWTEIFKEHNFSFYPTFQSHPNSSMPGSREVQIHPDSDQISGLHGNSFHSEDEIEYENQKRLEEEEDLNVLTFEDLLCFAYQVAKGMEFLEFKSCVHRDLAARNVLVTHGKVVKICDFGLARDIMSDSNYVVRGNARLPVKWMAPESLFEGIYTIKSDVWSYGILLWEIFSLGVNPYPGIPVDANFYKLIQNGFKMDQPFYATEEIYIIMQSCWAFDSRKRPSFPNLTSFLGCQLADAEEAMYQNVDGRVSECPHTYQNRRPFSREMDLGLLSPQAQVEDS
Experimental: as §1, §2, §3, §4

PDGFRα = PDGFRα (Homo sapiens, UniProt P16234); assay: as above
Experimental: as §1, §2, §3, §4

TrkA = TrkA (Homo sapiens, UniProt P04629); assay: as above
Experimental: as §1, §2, §3, §4

PDGFRβ = PDGFRβ (Homo sapiens, UniProt P09619); assay: as above
Experimental: as §1, §2, §3, §4

ERK2 = ERK2 (UniProt P28482); set-up: other: calculated for 0.1 μM for ~10 minutes; Ki; other: ERK2; kinact/Ki; "the target Cys 172 residue
Experimental: In either case, the time dependent inactivation can be dampened by the presence of a competing substrate, in this case ATP.
For covalent inhibitors, plots of log (activity) versus time provide apparent first-order rate constants (kobsd) of enzyme activity loss. If these assays are performed at varying concentrations of inhibitor, a series of first-order plots is obtained and kobsd obtained at each inhibitor concentration. […] Such molecules may be competitive inhibitors but should not show time-dependent inactivation.
Inhibition progress curve analysis was performed using continuous, colorimetric, or fluorimetric assays. All experiments were done at 1 mM ATP, with the exception of KDR (at 5 mM ATP).
as §4

Sequence of PDGFRβ (P09619 33-1106): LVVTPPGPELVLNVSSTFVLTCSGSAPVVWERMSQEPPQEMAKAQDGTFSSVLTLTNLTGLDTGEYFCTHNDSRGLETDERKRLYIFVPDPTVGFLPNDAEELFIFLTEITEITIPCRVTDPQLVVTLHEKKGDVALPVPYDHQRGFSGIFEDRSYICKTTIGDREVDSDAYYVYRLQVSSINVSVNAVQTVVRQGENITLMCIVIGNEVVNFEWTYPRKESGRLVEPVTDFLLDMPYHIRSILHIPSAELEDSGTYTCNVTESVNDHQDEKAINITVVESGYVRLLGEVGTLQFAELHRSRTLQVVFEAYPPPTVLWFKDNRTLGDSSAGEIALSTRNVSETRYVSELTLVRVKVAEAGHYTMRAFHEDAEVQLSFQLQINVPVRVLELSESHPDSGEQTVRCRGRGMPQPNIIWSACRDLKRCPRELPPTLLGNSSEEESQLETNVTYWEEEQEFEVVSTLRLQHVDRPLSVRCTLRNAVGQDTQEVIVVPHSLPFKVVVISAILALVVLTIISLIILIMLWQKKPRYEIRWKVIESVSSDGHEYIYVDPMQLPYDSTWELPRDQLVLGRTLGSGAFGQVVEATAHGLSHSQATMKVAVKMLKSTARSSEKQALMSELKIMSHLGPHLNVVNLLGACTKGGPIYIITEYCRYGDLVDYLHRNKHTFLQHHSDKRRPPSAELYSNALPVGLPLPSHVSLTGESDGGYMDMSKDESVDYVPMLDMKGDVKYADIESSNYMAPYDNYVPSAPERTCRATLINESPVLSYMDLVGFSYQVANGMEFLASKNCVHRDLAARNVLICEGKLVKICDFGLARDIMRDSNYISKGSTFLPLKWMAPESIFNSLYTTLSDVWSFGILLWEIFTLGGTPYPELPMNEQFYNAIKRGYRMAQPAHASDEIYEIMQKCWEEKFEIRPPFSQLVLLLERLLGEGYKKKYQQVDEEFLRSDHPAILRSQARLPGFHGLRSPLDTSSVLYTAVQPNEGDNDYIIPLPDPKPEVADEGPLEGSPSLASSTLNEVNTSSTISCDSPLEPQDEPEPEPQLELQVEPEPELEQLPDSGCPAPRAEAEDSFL
Sequence of TrkB (Q16620 32-822): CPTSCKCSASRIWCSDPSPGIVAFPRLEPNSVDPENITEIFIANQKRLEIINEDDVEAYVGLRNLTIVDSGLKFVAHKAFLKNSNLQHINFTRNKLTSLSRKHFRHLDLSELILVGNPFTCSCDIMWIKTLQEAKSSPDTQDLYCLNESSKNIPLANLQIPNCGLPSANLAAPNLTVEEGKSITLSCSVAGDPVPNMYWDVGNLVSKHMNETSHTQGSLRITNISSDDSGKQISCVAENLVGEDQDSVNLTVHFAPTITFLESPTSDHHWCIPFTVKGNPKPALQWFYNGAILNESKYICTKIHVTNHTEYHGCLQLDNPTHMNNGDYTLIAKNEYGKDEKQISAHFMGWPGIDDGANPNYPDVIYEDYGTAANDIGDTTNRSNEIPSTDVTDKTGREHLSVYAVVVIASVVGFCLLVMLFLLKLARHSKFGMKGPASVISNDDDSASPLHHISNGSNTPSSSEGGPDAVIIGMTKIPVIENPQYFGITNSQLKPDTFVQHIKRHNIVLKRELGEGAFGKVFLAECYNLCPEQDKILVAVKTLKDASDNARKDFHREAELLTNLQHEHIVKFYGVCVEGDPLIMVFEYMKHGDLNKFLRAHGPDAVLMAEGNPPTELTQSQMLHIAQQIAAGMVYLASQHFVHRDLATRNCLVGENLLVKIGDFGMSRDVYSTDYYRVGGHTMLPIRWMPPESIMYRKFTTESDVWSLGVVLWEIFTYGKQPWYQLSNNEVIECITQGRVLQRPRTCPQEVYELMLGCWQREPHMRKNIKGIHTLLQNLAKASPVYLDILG
Sequence of PDGFRα (P16234 24-1089): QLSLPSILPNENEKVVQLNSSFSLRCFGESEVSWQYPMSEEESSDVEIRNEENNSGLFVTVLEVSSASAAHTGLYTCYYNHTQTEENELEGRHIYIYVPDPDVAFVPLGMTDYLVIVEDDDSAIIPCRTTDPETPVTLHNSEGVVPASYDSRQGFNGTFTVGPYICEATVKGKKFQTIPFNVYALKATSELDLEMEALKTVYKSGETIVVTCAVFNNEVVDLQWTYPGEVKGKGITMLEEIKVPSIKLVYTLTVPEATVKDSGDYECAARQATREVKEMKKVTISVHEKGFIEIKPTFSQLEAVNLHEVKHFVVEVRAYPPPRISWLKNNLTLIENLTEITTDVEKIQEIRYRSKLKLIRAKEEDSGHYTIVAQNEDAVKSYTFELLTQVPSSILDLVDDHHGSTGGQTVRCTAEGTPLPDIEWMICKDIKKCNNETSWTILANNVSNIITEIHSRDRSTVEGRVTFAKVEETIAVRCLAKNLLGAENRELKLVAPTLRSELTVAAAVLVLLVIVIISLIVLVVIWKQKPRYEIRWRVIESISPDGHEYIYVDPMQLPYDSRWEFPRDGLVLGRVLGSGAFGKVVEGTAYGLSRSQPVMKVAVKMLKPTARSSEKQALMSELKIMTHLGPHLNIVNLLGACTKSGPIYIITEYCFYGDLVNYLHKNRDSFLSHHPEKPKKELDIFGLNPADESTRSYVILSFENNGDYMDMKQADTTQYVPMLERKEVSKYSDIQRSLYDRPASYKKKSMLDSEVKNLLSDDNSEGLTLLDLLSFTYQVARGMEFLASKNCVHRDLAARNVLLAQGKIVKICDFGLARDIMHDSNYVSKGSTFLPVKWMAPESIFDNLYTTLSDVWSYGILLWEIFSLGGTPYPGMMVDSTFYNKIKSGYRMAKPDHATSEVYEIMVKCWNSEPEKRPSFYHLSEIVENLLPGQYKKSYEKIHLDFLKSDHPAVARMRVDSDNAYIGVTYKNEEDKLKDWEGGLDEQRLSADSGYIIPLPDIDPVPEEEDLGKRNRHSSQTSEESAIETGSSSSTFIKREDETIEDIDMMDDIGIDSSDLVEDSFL
Sequence of TrkA (P04629 33-796): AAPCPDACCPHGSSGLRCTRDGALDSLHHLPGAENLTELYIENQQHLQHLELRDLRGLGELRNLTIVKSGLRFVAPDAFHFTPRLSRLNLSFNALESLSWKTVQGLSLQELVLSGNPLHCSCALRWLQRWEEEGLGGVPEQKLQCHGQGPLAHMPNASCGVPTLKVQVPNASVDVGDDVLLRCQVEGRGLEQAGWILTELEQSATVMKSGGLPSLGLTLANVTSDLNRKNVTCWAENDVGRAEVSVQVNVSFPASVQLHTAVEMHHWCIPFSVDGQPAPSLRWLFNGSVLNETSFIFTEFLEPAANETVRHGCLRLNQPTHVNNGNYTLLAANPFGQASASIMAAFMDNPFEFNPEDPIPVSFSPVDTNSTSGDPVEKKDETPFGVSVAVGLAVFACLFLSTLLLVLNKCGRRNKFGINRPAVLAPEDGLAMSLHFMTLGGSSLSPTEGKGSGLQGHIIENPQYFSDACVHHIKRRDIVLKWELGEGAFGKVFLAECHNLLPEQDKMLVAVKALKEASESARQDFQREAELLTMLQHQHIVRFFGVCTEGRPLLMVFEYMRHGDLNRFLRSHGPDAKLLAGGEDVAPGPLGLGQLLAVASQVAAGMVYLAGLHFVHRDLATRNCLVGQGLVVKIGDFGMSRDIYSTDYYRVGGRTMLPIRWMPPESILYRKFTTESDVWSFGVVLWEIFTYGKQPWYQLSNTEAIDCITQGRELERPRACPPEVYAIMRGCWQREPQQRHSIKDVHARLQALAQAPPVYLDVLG
Sequence of GSK3β (P49841 whole entry): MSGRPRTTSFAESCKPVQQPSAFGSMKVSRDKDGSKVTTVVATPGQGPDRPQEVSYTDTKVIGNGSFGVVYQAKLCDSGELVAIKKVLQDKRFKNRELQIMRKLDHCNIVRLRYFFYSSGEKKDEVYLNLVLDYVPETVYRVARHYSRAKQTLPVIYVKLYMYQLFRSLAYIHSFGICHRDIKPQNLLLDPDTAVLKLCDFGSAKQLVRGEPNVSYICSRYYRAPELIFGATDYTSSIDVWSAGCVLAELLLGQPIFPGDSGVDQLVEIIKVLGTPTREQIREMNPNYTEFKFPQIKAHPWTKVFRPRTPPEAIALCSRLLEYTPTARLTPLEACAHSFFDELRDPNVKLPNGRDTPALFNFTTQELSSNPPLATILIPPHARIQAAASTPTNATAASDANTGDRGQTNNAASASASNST
Sequence of GSK3α (P49840 whole entry): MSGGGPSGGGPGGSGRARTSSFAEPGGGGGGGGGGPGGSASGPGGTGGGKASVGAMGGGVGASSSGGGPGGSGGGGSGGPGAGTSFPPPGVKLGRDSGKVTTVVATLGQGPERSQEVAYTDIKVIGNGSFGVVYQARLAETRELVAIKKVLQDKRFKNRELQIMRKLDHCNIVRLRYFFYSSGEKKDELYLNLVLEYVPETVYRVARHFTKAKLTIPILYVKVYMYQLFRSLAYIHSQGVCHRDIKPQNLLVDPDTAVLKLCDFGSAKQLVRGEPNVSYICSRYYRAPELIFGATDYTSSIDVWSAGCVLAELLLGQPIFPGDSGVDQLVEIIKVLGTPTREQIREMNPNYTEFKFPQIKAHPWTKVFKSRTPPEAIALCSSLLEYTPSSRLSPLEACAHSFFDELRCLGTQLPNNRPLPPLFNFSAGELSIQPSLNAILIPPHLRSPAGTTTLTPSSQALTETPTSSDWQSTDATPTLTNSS

COc1cc(O)c2c(c1)[C@H]1O[C@@H]1C[C@H](O)[C@H](O)C(=O)/C=C\C[C@H](C)OC2=O [Hypothemycin, hypothemycin]
kinact/KI (Flt-1 (VEGFR1)): 160000 M⁻¹ s⁻¹ | kinact (Flt-1 (VEGFR1); 1 mM ATP): 0.018 s⁻¹ | Ki (Flt-1 (VEGFR1); 1 mM ATP, significant decrease of enzyme activity over time without inhibitor): 110 nM | Ki (GSK3α): > 630 µM | Ki (TrkB; TRKB, reversible inhibition competitive with ATP): 370 nM | kinact/Ki (TrkB; TrkB): None | time-dependent inactivation (covalent bond formation) (TrkB; TrkB): did not show time-dependent inactivation | kinact (TrkB; TrkB, 1 mM ATP): None | Ki (GSK3β): 370 µM | kinact/KI (GSK3β; GSK3β): 5.4 M⁻¹ s⁻¹ | kinact (GSK3β; GSK3β, 1 mM ATP): 0.002 s⁻¹ | kinact/KI (Flt-3): 47000 M⁻¹ s⁻¹ | Ki (Flt-3; 1 mM ATP): 150 nM | kinact (Flt-3; 1 mM ATP): 0.007 s⁻¹ | kinact/KI (PDGFRα): 1300 M⁻¹ s⁻¹ | Ki (PDGFRα; 1 mM ATP): 1500 nM | kinact (PDGFRα; 1 mM ATP): 0.002 s⁻¹ | Ki (TrkA; TRKA, reversible inhibition competitive with ATP): 2200 nM | kinact/Ki (TrkA; TrkA): None | time-dependent inactivation (covalent bond formation) (TrkA; TrkA): did not show time-dependent inactivation | kinact (TrkA; TrkA, 1 mM ATP): None | kinact/KI (PDGFRβ): 2500 M⁻¹ s⁻¹ | Ki (PDGFRβ; 1 mM ATP): 1200 nM | kinact (PDGFRβ; 1 mM ATP): 0.003 s⁻¹ | Ki (ERK2; ERK2): 2000 nM | kinact/Ki (ERK2; ERK2): 1.9E+03 | ERK activity inhibited (ERK2; calculated for 0.1 μM for ~10 minutes): < 5%

Source: patent US20100004234A1, “SPECIFIC KINASE INHIBITORS” (Kosan Biosciences Incorporated, priority 2004, published 2010)
